Data taken from ChEMBL document CHEMBL4392857, “Isolation, Chiral-Phase Resolution, and Determination of the Absolute Configurations of a Complete Series of Stereoisomers of a Rearranged Acetophenone with Three Stereocenters” (2019).

Columns and labels:
HUVEC [1] = assay: Cytoprotective effect against high glucose-induced oxidative stress in HUVEC assessed as cell viability at 1 uM incubated by MTT assay (reference value: 72.1 to 77.9%); format: functional; conditions: Homo sapiens, read-out: Activity
HUVEC [2] = assay: Cytoprotective effect against high glucose-induced oxidative stress in HUVEC assessed as cell viability at 5 uM incubated by MTT assay (reference value: 72.1 to 77.9%); format: functional; conditions: Homo sapiens, read-out: Activity

SMILES | viability at 1 µM (HUVEC [1]) | viability at 5 µM (HUVEC [2])
COC(=O)[C@@]1(O)C(=O)[C@@]2(CC=C(C)C)C[C@H](O)C(C)(C)OC2=C1C(C)=O | 79.9% | 82%
COC(=O)[C@@]1(O)C(=O)[C@@]2(CC=C(C)C)C[C@@H](O)C(C)(C)OC2=C1C(C)=O | 101% | 101%
COC(=O)[C@]1(O)C(=O)[C@]2(CC=C(C)C)C[C@@H](O)C(C)(C)OC2=C1C(C)=O | 103% | 104%
COC(=O)[C@@]1(O)C(=O)[C@]2(CC=C(C)C)C[C@@H](O)C(C)(C)OC2=C1C(C)=O | 75.6% | 62.7%
COC(=O)[C@@]1(O)C(=O)[C@]2(CC=C(C)C)C[C@H](O)C(C)(C)OC2=C1C(C)=O | 103% | 104%
COC(=O)[C@]1(O)C(=O)[C@@]2(CC=C(C)C)C[C@@H](O)C(C)(C)OC2=C1C(C)=O | 79.9% | 82%
COC(=O)[C@]1(O)C(=O)[C@]2(CC=C(C)C)C[C@H](O)C(C)(C)OC2=C1C(C)=O | 94.2% | 93%
COC(=O)[C@]1(O)C(=O)[C@@]2(CC=C(C)C)C[C@H](O)C(C)(C)OC2=C1C(C)=O | 71.7% | 65.1%
Oc1ccc(/C=C/c2cc(O)cc(O)c2)cc1 [RESVERATROL] | 86.4% | 103%
